Experimental data: ChEMBL document CHEMBL5303573, “Mapping human microbiome drug metabolism by gut bacteria and their genes” (Nature, 2019)

Tests used:
[1] = roseburia intestinalis, 12 h, 2 µM
Description: The drug is tested on Roseburia intestinalis strain: L1-82 for biotransformation. The drug concentrations were measured before and after a 12-h incubation by liquid-chromatography-coupled mass spectrometry (LC–MS)

[2] = The drug is tested on Bacteroides finegoldii strain: DSM17565 for biotransformation. The drug concentrations were measured before and after a 12-h incubation by liquid-chromatography-coupled mass spectrometry (LC–MS); details: 2 µM
[3] = The drug is tested on Parabacteroides merdae strain: ATCC43184 for biotransformation. The drug concentrations were measured before and after a 12-h incubation by liquid-chromatography-coupled mass spectrometry (LC–MS); details: 2 µM
[4] = The drug is tested on Bacteroides coprophilus strain: DSM18228 for biotransformation. The drug concentrations were measured before and after a 12-h incubation by liquid-chromatography-coupled mass spectrometry (LC–MS); details: 2 µM
[5] = The drug is tested on Clostridium ramosum strain: DSM1402 for biotransformation. The drug concentrations were measured before and after a 12-h incubation by liquid-chromatography-coupled mass spectrometry (LC–MS); details: thomasclavelia ramosa, 2 µM
[6] = bacteroides thetaiotaomicron, 12 h, 2 µM
Description: The drug is tested on Bacteroides thetaiotaomicron strain: 7330 for biotransformation. The drug concentrations were measured before and after a 12-h incubation by liquid-chromatography-coupled mass spectrometry (LC–MS)

[7] = The drug is tested on Bacteroides dorei strain: DSM17855 for biotransformation. The drug concentrations were measured before and after a 12-h incubation by liquid-chromatography-coupled mass spectrometry (LC–MS); details: phocaeicola dorei, 2 µM
[8] = bacteroides thetaiotaomicron, 12 h, 2 µM; remark: listed apart in the source
Description: The drug is tested on Bacteroides thetaiotaomicron strain: VPI-5482 for biotransformation. The drug concentrations were measured before and after a 12-h incubation by liquid-chromatography-coupled mass spectrometry (LC–MS)

[9] = The drug is tested on Alistipes indistinctus strain: DSM22520 for biotransformation. The drug concentrations were measured before and after a 12-h incubation by liquid-chromatography-coupled mass spectrometry (LC–MS); details: 2 µM
[10] = bacteroides fragilis, 12 h, 2 µM
Description: The drug is tested on Bacteroides fragilis strain: DS-208 for biotransformation. The drug concentrations were measured before and after a 12-h incubation by liquid-chromatography-coupled mass spectrometry (LC–MS)

[11] = The drug is tested on Bacteroides vulgatus strain: ATCC8482 for biotransformation. The drug concentrations were measured before and after a 12-h incubation by liquid-chromatography-coupled mass spectrometry (LC–MS); details: phocaeicola vulgatus, 2 µM
[12] = The drug is tested on Bacteroides uniformis strain: ATCC8492 for biotransformation. The drug concentrations were measured before and after a 12-h incubation by liquid-chromatography-coupled mass spectrometry (LC–MS); details: 2 µM
[13] = The drug is tested on Blautia hansenii strain: DSM20583 for biotransformation. The drug concentrations were measured before and after a 12-h incubation by liquid-chromatography-coupled mass spectrometry (LC–MS); details: 2 µM
[14] = victivallis vadensis, 12 h, 2 µM
Description: The drug is tested on Victivallis vadensis strain: ATCC BAA-548 for biotransformation. The drug concentrations were measured before and after a 12-h incubation by liquid-chromatography-coupled mass spectrometry (LC–MS)

[15] = The drug is tested on Escherichia coli strain: BW25113 for biotransformation. The drug concentrations were measured before and after a 12-h incubation by liquid-chromatography-coupled mass spectrometry (LC–MS); details: 2 µM
[16] = The drug is tested on Enterococcus faecalis strain: V583 for biotransformation. The drug concentrations were measured before and after a 12-h incubation by liquid-chromatography-coupled mass spectrometry (LC–MS); details: 2 µM
[17] = The drug is tested on Enterobacter cancerogenus strain: ATCC35316 for biotransformation. The drug concentrations were measured before and after a 12-h incubation by liquid-chromatography-coupled mass spectrometry (LC–MS); details: 2 µM
[18] = The drug is tested on Coprococcus comes strain: ATCC27758 for biotransformation. The drug concentrations were measured before and after a 12-h incubation by liquid-chromatography-coupled mass spectrometry (LC–MS); type: ADME; parameters: dose 2 uM, timepoint 0 vs 12 hours; details: 2 µM
[19] = The drug is tested on Anaerococcus hydrogenalis strain: DSM7454 for biotransformation. The drug concentrations were measured before and after a 12-h incubation by liquid-chromatography-coupled mass spectrometry (LC–MS); details: 2 µM
[20] = The drug is tested on Bifidobacterium ruminantium strain: fecal isolate for biotransformation. The drug concentrations were measured before and after a 12-h incubation by liquid-chromatography-coupled mass spectrometry (LC–MS); details: 2 µM

CC(=O)SCC(Cc1ccccc1)C(=O)NCC(=O)OCc1ccccc1 (centres undefined) [RACECADOTRIL]
Bacterial Biotransformation [1]: Compound metabolized
Bacterial Biotransformation [2]: Compound metabolized
Bacterial Biotransformation [3]: Compound metabolized
Bacterial Biotransformation [4]: Compound metabolized
Bacterial Biotransformation [5]: Compound NOT metabolized
Bacterial Biotransformation [6]: Compound metabolized
Bacterial Biotransformation [7]: Compound metabolized
Bacterial Biotransformation [8]: Compound metabolized
Bacterial Biotransformation [9]: Compound metabolized
Bacterial Biotransformation [10]: Compound metabolized
Bacterial Biotransformation [11]: Compound metabolized
Bacterial Biotransformation [12]: Compound metabolized
Bacterial Biotransformation [13]: Compound metabolized
Bacterial Biotransformation [14]: Compound metabolized
Bacterial Biotransformation [15]: Compound NOT metabolized

CN(C)C(=O)Oc1cc(OC(=O)N(C)C)cc(C(O)CNC(C)(C)C)c1 (centres undefined) [BAMBUTEROL]
Bacterial Biotransformation [1]: Compound NOT metabolized
Bacterial Biotransformation [2]: Compound NOT metabolized
Bacterial Biotransformation [16]: Compound NOT metabolized
Bacterial Biotransformation [17]: Compound NOT metabolized
Bacterial Biotransformation [3]: Compound NOT metabolized
Bacterial Biotransformation [4]: Compound NOT metabolized
Bacterial Biotransformation [5]: Compound NOT metabolized
Bacterial Biotransformation [6]: Compound NOT metabolized
Bacterial Biotransformation [7]: Compound NOT metabolized
Bacterial Biotransformation [8]: Compound NOT metabolized
Bacterial Biotransformation [10]: Compound NOT metabolized
Bacterial Biotransformation [18]: Compound NOT metabolized
Bacterial Biotransformation [11]: Compound NOT metabolized
Bacterial Biotransformation [12]: Compound NOT metabolized
Bacterial Biotransformation [13]: Compound NOT metabolized
Bacterial Biotransformation [14]: Compound NOT metabolized
Bacterial Biotransformation [15]: Compound NOT metabolized
Bacterial Biotransformation [19]: Compound NOT metabolized

CN(C)CCC=C1c2ccccc2C=Cc2ccccc21 [CYCLOBENZAPRINE]
Bacterial Biotransformation [2]: Compound NOT metabolized
Bacterial Biotransformation [16]: Compound NOT metabolized
Bacterial Biotransformation [17]: Compound NOT metabolized
Bacterial Biotransformation [3]: Compound NOT metabolized
Bacterial Biotransformation [4]: Compound NOT metabolized
Bacterial Biotransformation [20]: Compound NOT metabolized
Bacterial Biotransformation [5]: Compound NOT metabolized
Bacterial Biotransformation [8]: Compound NOT metabolized
Bacterial Biotransformation [10]: Compound NOT metabolized
Bacterial Biotransformation [18]: Compound NOT metabolized
Bacterial Biotransformation [11]: Compound NOT metabolized
Bacterial Biotransformation [13]: Compound metabolized
Bacterial Biotransformation [14]: Compound NOT metabolized
Bacterial Biotransformation [15]: Compound NOT metabolized
Bacterial Biotransformation [19]: Compound NOT metabolized

CNC(=C[N+](=O)[O-])NCCSCc1ccc(CN(C)C)o1 [RANITIDINE]
Bacterial Biotransformation [1]: Compound metabolized
Bacterial Biotransformation [16]: Compound metabolized
Bacterial Biotransformation [17]: Compound NOT metabolized
Bacterial Biotransformation [3]: Compound NOT metabolized
Bacterial Biotransformation [4]: Compound metabolized
Bacterial Biotransformation [20]: Compound metabolized
Bacterial Biotransformation [5]: Compound metabolized
Bacterial Biotransformation [6]: Compound NOT metabolized
Bacterial Biotransformation [7]: Compound metabolized
Bacterial Biotransformation [8]: Compound NOT metabolized
Bacterial Biotransformation [10]: Compound metabolized
Bacterial Biotransformation [18]: Compound metabolized
Bacterial Biotransformation [11]: Compound metabolized
Bacterial Biotransformation [12]: Compound NOT metabolized
Bacterial Biotransformation [13]: Compound metabolized
Bacterial Biotransformation [14]: Compound NOT metabolized
Bacterial Biotransformation [15]: Compound NOT metabolized
Bacterial Biotransformation [19]: Compound metabolized

CN1CCN(C2=Nc3cc(Cl)ccc3Nc3ccccc32)CC1 [CLOZAPINE]
Bacterial Biotransformation [2]: Compound NOT metabolized
Bacterial Biotransformation [17]: Compound NOT metabolized
Bacterial Biotransformation [3]: Compound NOT metabolized
Bacterial Biotransformation [20]: Compound NOT metabolized
Bacterial Biotransformation [5]: Compound NOT metabolized
Bacterial Biotransformation [6]: Compound NOT metabolized
Bacterial Biotransformation [7]: Compound NOT metabolized
Bacterial Biotransformation [8]: Compound NOT metabolized
Bacterial Biotransformation [10]: Compound NOT metabolized
Bacterial Biotransformation [18]: Compound NOT metabolized
Bacterial Biotransformation [11]: Compound NOT metabolized
Bacterial Biotransformation [12]: Compound NOT metabolized
Bacterial Biotransformation [13]: Compound NOT metabolized
Bacterial Biotransformation [14]: Compound NOT metabolized
Bacterial Biotransformation [15]: Compound NOT metabolized
Bacterial Biotransformation [19]: Compound NOT metabolized

O=C(O)c1cc(/N=N/c2ccc(S(=O)(=O)Nc3ccccn3)cc2)ccc1O [SULFASALAZINE]
Bacterial Biotransformation [1]: Compound metabolized
Bacterial Biotransformation [2]: Compound metabolized
Bacterial Biotransformation [16]: Compound metabolized
Bacterial Biotransformation [3]: Compound metabolized
Bacterial Biotransformation [4]: Compound NOT metabolized
Bacterial Biotransformation [20]: Compound metabolized
Bacterial Biotransformation [5]: Compound metabolized
Bacterial Biotransformation [6]: Compound metabolized
Bacterial Biotransformation [7]: Compound metabolized
Bacterial Biotransformation [8]: Compound metabolized
Bacterial Biotransformation [9]: Compound metabolized
Bacterial Biotransformation [10]: Compound metabolized
Bacterial Biotransformation [18]: Compound metabolized
Bacterial Biotransformation [11]: Compound metabolized
Bacterial Biotransformation [12]: Compound metabolized
Bacterial Biotransformation [13]: Compound metabolized
Bacterial Biotransformation [14]: Compound metabolized
Bacterial Biotransformation [15]: Compound metabolized
Bacterial Biotransformation [19]: Compound metabolized

CCOC(=O)[C@H](CCc1ccccc1)N[C@@H](C)C(=O)N1Cc2ccccc2C[C@H]1C(=O)O
Bacterial Biotransformation [1]: Compound NOT metabolized
Bacterial Biotransformation [16]: Compound NOT metabolized
Bacterial Biotransformation [17]: Compound NOT metabolized
Bacterial Biotransformation [3]: Compound NOT metabolized
Bacterial Biotransformation [4]: Compound metabolized
Bacterial Biotransformation [20]: Compound metabolized
Bacterial Biotransformation [6]: Compound metabolized
Bacterial Biotransformation [7]: Compound metabolized
Bacterial Biotransformation [8]: Compound metabolized
Bacterial Biotransformation [10]: Compound metabolized
Bacterial Biotransformation [18]: Compound NOT metabolized
Bacterial Biotransformation [11]: Compound metabolized
Bacterial Biotransformation [12]: Compound metabolized
Bacterial Biotransformation [13]: Compound metabolized
Bacterial Biotransformation [14]: Compound NOT metabolized
Bacterial Biotransformation [15]: Compound NOT metabolized
Bacterial Biotransformation [19]: Compound NOT metabolized

CC(=O)Nc1ccc(OC(C)=O)cc1 [DIACETAMATE]
Bacterial Biotransformation [1]: Compound metabolized
Bacterial Biotransformation [2]: Compound metabolized
Bacterial Biotransformation [16]: Compound metabolized
Bacterial Biotransformation [3]: Compound metabolized
Bacterial Biotransformation [4]: Compound metabolized
Bacterial Biotransformation [20]: Compound metabolized
Bacterial Biotransformation [5]: Compound metabolized
Bacterial Biotransformation [6]: Compound metabolized
Bacterial Biotransformation [7]: Compound metabolized
Bacterial Biotransformation [8]: Compound metabolized
Bacterial Biotransformation [9]: Compound metabolized
Bacterial Biotransformation [10]: Compound metabolized
Bacterial Biotransformation [18]: Compound metabolized
Bacterial Biotransformation [11]: Compound metabolized
Bacterial Biotransformation [12]: Compound metabolized
Bacterial Biotransformation [13]: Compound NOT metabolized
Bacterial Biotransformation [14]: Compound metabolized
Bacterial Biotransformation [19]: Compound metabolized

CC#C[C@]1(O)CC[C@H]2[C@@H]3CCC4=CC(=O)CCC4=C3[C@@H](c3ccc(N(C)C)cc3)C[C@@]21C [MIFEPRISTONE]
Bacterial Biotransformation [1]: Compound NOT metabolized
Bacterial Biotransformation [2]: Compound NOT metabolized
Bacterial Biotransformation [16]: Compound metabolized
Bacterial Biotransformation [17]: Compound NOT metabolized
Bacterial Biotransformation [3]: Compound NOT metabolized
Bacterial Biotransformation [4]: Compound NOT metabolized
Bacterial Biotransformation [5]: Compound NOT metabolized
Bacterial Biotransformation [6]: Compound NOT metabolized
Bacterial Biotransformation [7]: Compound metabolized
Bacterial Biotransformation [8]: Compound NOT metabolized
Bacterial Biotransformation [10]: Compound NOT metabolized
Bacterial Biotransformation [18]: Compound NOT metabolized
Bacterial Biotransformation [11]: Compound metabolized
Bacterial Biotransformation [12]: Compound NOT metabolized
Bacterial Biotransformation [13]: Compound metabolized
Bacterial Biotransformation [14]: Compound NOT metabolized
Bacterial Biotransformation [15]: Compound NOT metabolized
Bacterial Biotransformation [19]: Compound NOT metabolized
